Source: patent US9296736B2 (priority 2010, dated 2016)

Target: interaction between GST-hMDM2 (1-188) and biotinylated-p53 (1-83) (Homo sapiens (Human), UniProt Q00987)
Experiment: biochemical

Chain of interaction between GST-hMDM2 (1-188) and biotinylated-p53 (1-83) (Q00987 1-188): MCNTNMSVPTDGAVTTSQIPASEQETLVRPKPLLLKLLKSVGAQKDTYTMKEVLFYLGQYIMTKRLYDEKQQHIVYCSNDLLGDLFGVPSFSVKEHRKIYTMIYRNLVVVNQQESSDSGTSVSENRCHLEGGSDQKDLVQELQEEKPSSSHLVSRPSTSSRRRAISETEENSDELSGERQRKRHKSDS

CC[C@@H](CNS(=O)(=O)c1cccnc1)N1C(=O)[C@@](C)(CC(=O)O)C[C@H](c2cccc(Cl)c2)[C@H]1c1ccc(Cl)cc1 [Example 196, 2-((3R,5R,6S)-5-(3-chlorophenyl)-6-(4-chlorophenyl)-3-methyl-2-oxo-1-((S)-1-(pyridine-3-sulfonamido)butan-2-yl)piperidin-3-yl)acetic acid] showed an IC50 of under 1 nM.
